From patent publication US20230270703A1, “COMPOUNDS AND METHODS FOR THE TREATMENT OF EYE DISORDERS” (OccuRx Pty Ltd, priority 2020, published 2023)
Read-outs that look alike come from different tables or passages of the source.

Columns and labels:
[1] = Rat plasma and retina pharmacokinetics, single oral dose 50 mg/kg; assay type: in vivo, Sprague Dawley rats; conditions: single oral dose 50 mg/kg
Method: Male Sprague Dawley rats were administered a single dose of 50 mg/kg of (E)-2-[[3-Methoxy-4-(difluoromethoxy)phenyl-1-oxo-2-propenyl]amino]benzoic acid by oral gavage. The oral formulation was prepared in 1% carboxymethyl cellulose. Samples were collected from 3 animals/timepoint at 1, 2, 4, 8 and 24 hours after dosing. Whole blood was collected from the tail vein in conscious rats into polypropylene tubes containing heparin. Blood samples were centrifuged immediately (3000 rpm, for 10 minutes) and supernatant plasma removed and snap frozen in liquid N2. After blood collection, animals were euthanised with pentobarbitone (120 mg/kg), eyes were enucleated and retina were weighed, collected and snap frozen in liquid nitrogen. Blood was centrifuged at 3000 rpm for 10 mins at 4° C. and plasma was collected and snap frozen in liquid N2. Plasma and retinal concentrations of (E)-2-[[3-Methoxy-4-(difluoromethoxy)phenyl-1-oxo-2-propenyl]amino]benzoic acid were determined using a validated LC-MS/MS method. Cmax and Tmax was estimated using GraphPad prism software.

[2] = Human clinical plasma pharmacokinetics, single or multiple doses of 200 mg; assay type: in vivo, humans; conditions: for Dose normalised AUC0-inf / Dose normalised Cmax / AUC(0-inf) / Cmax / Tmax / half-life: 200 mg oral; for AUC(0-inf) / Cmax / Tmax / half-life: human, plasma, po; for half-life: read-out: T ½ (converted)
Method: Clinical pharmacokinetic studies were also conducted on volunteers who received a single dose or multiple doses of 200 mg (E)-2-[[3-Methoxy-4-(difluoromethoxy)phenyl-1-oxo-2-propenyl]amino] benzoic acid administered as powder-in-capsule. Blood was collected 10 minutes prior to dosing, and at 15 and 30 minutes and 1, 2, 3, 4, 6, 8, 12, 24, 36, 48, 72 and 96 hours post dose into K2EDTA tubes. Samples were spun in a refrigerated centrifuge within 1 hour of collection, at 2000 g for 10 minutes. Plasma was collected and frozen on dry ice.
(§1) The concentration of (E)-2-[[3-Methoxy-4-(difluoromethoxy)phenyl-1-oxo-2-propenyl]amino]benzoic acid in plasma was determined using a validated LC-MS/MS method. A non-compartmental analysis was performed using WinNonLin software. Nominal doses and sampling times were used. Concentration values below the lower limit of quantitation were treated as zero for pharmacokinetic analysis.

[3] = Animal pharmacokinetic data, 91 days of dosing in rats; assay type: in vivo
[4] = Rabbit plasma and ocular tissue steady state pharmacokinetics, 8 daily oral doses; assay type: in vivo, Dutch Belted pigmented rabbits; conditions: for Tmax / Cmax: male, Dutch Belted
Method: Male Dutch Belted pigmented rabbits were administered a once daily dose of 50 or 100 mg/kg of (E)-2-[[3-Methoxy-4-(difluoromethoxy)phenyl-1-oxo-2-propenyl]amino]benzoic acid by oral gavage for 8 days. The oral formulation was prepared in 1% carboxymethyl cellulose. Blood was collected into tubes containing K2EDTA from two animals/dose/time point at 0 (predose), 1, 2, 4, 8, and 24 hours after the last dose on Study Day 8. Immediately following blood collection, animals were sacrificed via overdose of sodium pentobarbital. Blood samples were placed in a chilled cryorack until centrifuged to obtain plasma, which was stored at approximately -70° C. At the time of sacrifice for all animals, both eyes were enucleated, the aqueous humor was collected and discarded, and each eye was then flash frozen in liquid nitrogen for 15 to 20 seconds. The enucleated eye was placed on dry ice or stored at approximately -70° C. for at least two hours. Within approximately 5 days, the choroid-RPE, iris-ciliary body, retina and vitreous humor were collected from the right and left eye. The ocular tissues were rinsed with saline and blotted dry, as appropriate, weighed, and placed on dry ice. Sample analysis was performed using a qualified LC-MS/MS method to ascertain the concentration of (E)-2-[[3-Methoxy-4-(difluoromethoxy)phenyl-1-oxo-2-propenyl]amino]benzoic acid in each tissue matrix. Non-compartmental analysis (Gibaldi and Perrier, 1982) was applied to the individual and mean concentration data. Nominal doses and sampling times were used. Concentration values below the lower limit of quantitation were treated as zero for pharmacokinetic analysis. The plasma and ocular steady state non-compartmental pharmacokinetic parameters for repeated oral administration of 50 or 100 mg/kg on Day 8 are summarized in Table 2 and further below.

[5] = Animal pharmacokinetic data, 91 days of dosing in dogs; assay type: in vivo
[6] = Dog plasma pharmacokinetic study, single daily dose for 28 days, plasma on first day of dosing; assay type: in vivo, Beagle dogs; conditions: beagle, read-out: elimination half-life (converted)
Method: Beagle dogs were administered a single daily dose of (E)-2-[[3-Methoxy-4-(difluoromethoxy)phenyl-1-oxo-2-propenyl]amino]benzoic at 25, 50 or 100 mg/kg for 28 consecutive days. Plasma was collected up to 24 hours post-dose on the first day of dosing.

[7] = Human Phase I clinical study, steady state exposure at 50 mg after 14 days dosing; assay type: in vivo, humans; conditions: plasma, oral, Data from Phase I (after 14 days dosing)
Method: The corresponding data from the human Phase I clinical study is also included below, showing a much greater than predicted Cmax and AUC0-24 at 50 mg dosing.

[8] = Human Phase I clinical trial plasma pharmacokinetics, single 50 mg dose; assay type: in vivo, humans; conditions: 50 mg single oral dose
Method: Six healthy male volunteers in a Phase I clinical trial received a single dose of 50 mg (E)-2-[[3-Methoxy-4-(difluoromethoxy)phenyl-1-oxo-2-propenyl]amino] benzoic acid administered as powder-in-capsule. Blood was collected 10 minutes prior to dosing, and at 15 and 30 minutes and 1, 2, 3, 4, 6, 8, 12, 24, 36, 48, 72 and 96 hours post dose into K2EDTA tubes. Samples were spun in a refrigerated centrifuge within 1 hour of collection, at 2000 g for 10 minutes. Plasma was collected and frozen on dry ice.
as §1

[9] = Rat plasma pharmacokinetic study, single daily dose for 28 days, plasma on first day of dosing; assay type: in vivo, Sprague-Dawley rats; conditions: Sprague-Dawley, read-out: elimination half-life (converted)
Method: Sprague-Dawley rats were administered a single daily dose of (E)-2-[[3-methoxy-4-(difluoromethoxy)phenyl-1-oxo-2-propenyl]amino]benzoic at 25, 50 or 100 mg/kg for 28 consecutive days. Plasma was collected up to 24 hours post-dose on the first day of dosing.

[10] = human plasma, cited from earlier work
[11] = Tranilast plasma pharmacokinetics after 200 mg oral dosage (data from Charng et al.); assay type: in vivo, humans; conditions: human plasma
Method: Pharmacokinetic data for a comparator compound Tranilast following 200 mg oral dosage are also shown. See, e.g., Charng M, Ding P Y, Chuang M, et al. Pharmacokinetic Properties of Tranilast in Chinese People. Journal of Food and Drug Analysis, Vol. 10, No. 3, 2002, Pages 135-138. Tranilast is approved for use in an amount of 3 × 100 mg/day.

[12] = Tranilast 200 mg, Day 1, single dose

Compound: COc1cc(/C=C/C(=O)Nc2ccccc2C(=O)O)ccc1OC(F)F [(E)-2-[[3-methoxy-4-(difluoromethoxy)phenyl-1-oxo-2-propenyl]amino]benzoic acid]
- Cmax ([1]; male, Sprague Dawley, rat retina, read-out: estimated Cmax in retina): 792 ng/g
- estimated maximum concentration in plasma ([1]; rat plasma): 35,134 ng/mL
- time of estimated maximum concentration in plasma ([1]; rat plasma): 1 h
- time of estimated maximal exposure in retina ([1]; rat retina): 4 h
- detection in the plasma and retina at 24-hours post-dose ([1]; rat): still detected
- Dose normalised AUC0-inf ([2]; Day 1, single dose): 1951 ng·h/mL
- Dose normalised Cmax ([2]; Day 1, single dose): 164 ng/mL
- Dose normalised AUC0-inf ([2]; Day 14, multiple dose): 18,874 ng·h/mL
- Dose normalised Cmax ([2]; Day 14, multiple dose): 338 ng/mL
- increase in Cmax after 14 days of dosing compared with a single dose ([2]; 200 mg, steady state vs single dose): two-fold increase
- AUC(0-inf) ([2]; 200 mg, Day 1, single dose): 390 µg·h/mL
- Cmax ([2]; 200 mg, Day 1, single dose): 32800 ng/mL
- Tmax ([2]; 200 mg, Day 1, single dose): 3 h
- half-life ([2]; 200 mg, Day 1, single dose): 9.6 h
- AUC(0-inf) ([2]; 200 mg, Day 14, multiple dose): 3770 µg·h/mL
- Cmax ([2]; 200 mg, Day 14, multiple dose): 67600 ng/mL
- Tmax ([2]; 200 mg, Day 14, multiple dose): 2.5 h
- half-life ([2]; 200 mg, Day 14, multiple dose): 23.2 h
- accumulation with multiple dosing [3]: did not show accumulation
- Tmax ([4]; oral, rabbit ocular tissues, 50 and 100 mg/kg, read-out: Tmax for all analyzed ocular tissues): 1 to 4 h
- Cmax ([4]; rabbit Choroid-RPE, 50 mg/kg/day oral, Day 8): 3320 ng/g
- Tmax ([4]; rabbit Choroid-RPE, 50 mg/kg/day oral, Day 8, read-out: Tmax): 1 h
- Cmax ([4]; rabbit Choroid-RPE, 100 mg/kg/day oral, Day 8): 12300 ng/g
- Tmax ([4]; rabbit Choroid-RPE, 100 mg/kg/day oral, Day 8, read-out: Tmax): 2 h
- Cmax ([4]; rabbit Iris Ciliary Body, 50 mg/kg/day oral, Day 8): 2510 ng/g
- Tmax ([4]; rabbit Iris Ciliary Body, 50 mg/kg/day oral, Day 8, read-out: Tmax): 1 h
- Cmax ([4]; rabbit Iris Ciliary Body, 100 mg/kg/day oral, Day 8): 8620 ng/g
- Tmax ([4]; rabbit Iris Ciliary Body, 100 mg/kg/day oral, Day 8, read-out: Tmax): 2 h
- Cmax ([4]; rabbit Plasma, 50 mg/kg/day oral, Day 8): 15200 ng/mL
- Tmax ([4]; rabbit Plasma, 50 mg/kg/day oral, Day 8, read-out: Tmax): 1 h
- Cmax ([4]; rabbit Plasma, 100 mg/kg/day oral, Day 8): 42000 ng/mL
- Tmax ([4]; rabbit Plasma, 100 mg/kg/day oral, Day 8, read-out: Tmax): 2 h
- Cmax ([4]; rabbit Retina, 50 mg/kg/day oral, Day 8): 623 ng/g
- Tmax ([4]; rabbit Retina, 50 mg/kg/day oral, Day 8, read-out: Tmax): 1 h
- Cmax ([4]; rabbit Retina, 100 mg/kg/day oral, Day 8): 2370 ng/g
- Tmax ([4]; rabbit Retina, 100 mg/kg/day oral, Day 8, read-out: Tmax): 4 h
- Cmax ([4]; rabbit Vitreous Humour, 50 mg/kg/day oral, Day 8): 3.3 ng/mL
- Tmax ([4]; rabbit Vitreous Humour, 50 mg/kg/day oral, Day 8, read-out: Tmax): 1 h
- Cmax ([4]; rabbit Vitreous Humour, 100 mg/kg/day oral, Day 8): 11.5 ng/mL
- Tmax ([4]; rabbit Vitreous Humour, 100 mg/kg/day oral, Day 8, read-out: Tmax): 4 h
- detection in plasma or ocular tissue by 24 hours-post dose ([4]; rabbits, either dose (50 or 100 mg/kg)): could not be detected
- accumulation with multiple dosing [5]: did not show accumulation
- half-life ([6]; 25 mg/kg): 4.3 h
- half-life ([6]; 50 mg/kg): 4.9 h
- half-life ([6]; 100 mg/kg): 4.2 h
- Cmax [7]: 6560 ng/mL
- AUC(0-t) ([7]; read-out: AUC0-24 hrs, ss): 74 µg·h/mL
- Dose normalised AUC0-inf [8]: 2,256 ng·h/mL
- Dose normalised Cmax [8]: 175 ng/mL
- AUC(0-inf) ([8]; male): 113 µg·h/mL
- Tmax ([8]; male): 2.5 h
- Cmax ([8]; male, powder-in-capsule): 8740 ng/mL
- half-life ([8]; male, read-out: T ½ (converted)): 24 h
- half-life ([9]; 25 mg/kg): 12.9 h
- half-life ([9]; 50 mg/kg): 13 h
- half-life ([9]; 100 mg/kg): 11 h

Compound: COc1ccc(/C=C/C(=O)Nc2ccccc2C(=O)O)cc1OC [Tranilast]
- AUC(0-inf) ([10]; Tranilast 200 mg oral): 412,000 ng·h/mL
- Cmax ([10]; Tranilast 200 mg oral): 42,000 ng/mL
- T ½ ([10]; Tranilast 200 mg oral): 7.5 h
- Tmax ([10]; Tranilast 200 mg oral): 2.8 h
- AUC(0-inf) [10, 12]: 412,000 ng-h/mL
- Cmax [10, 12]: 42,000 ng/mL
- T ½ [10, 12]: 7.5 h
- Tmax [10, 12]: 2.8 h
- Dose normalised AUC0-inf ([11]; Tranilast 200 mg oral): 2,060 ng·h/mL
- Dose normalised Cmax ([11]; Tranilast 200 mg oral): 210 ng/mL
- Dose normalised AUC0-inf [11, 12]: 2,060 ng·h/mL
- Dose normalised Cmax [11, 12]: 210 ng/mL
